Measured values: PubChem BioAssay AID1963869 (Molecular Pharmacology Branch, DTP, NCI, 2024)
pIC50: −log10 of the molar value.

System: KRAS patient-derived spheroids with HUVEC/MSC, viability
Experiment: Anticancer human tumor 323965-272-R-J2-PDC patient-derived pancreatic carcinoma cell line growth inhibition [KRAS2]
Details: for pIC50: curve of first compound; for viability, T/C: stronger effect = lower value
Text: Multicellular complex tumor spheroid response to RAS pathway inhibitors in combination with a targeted agents in patient-derived cell lines with oncogenic KRAS variants from multiple cancer types
A high-throughput screen of multi-cell type tumor spheroids was designed to identify active combinations of targeted small molecules and KRAS pathway inhibitors. Complex spheroids include a stromal component modeled by human endothelial cells (HUVEC) and fibroblasts modeled by human mesenchymal stem cells (MSCs). The concentration ranges selected for each drug and investigational agent were based upon clinically achievable concentrations if the clinical Cmax of the agent was known.
Compounds. The drugs and investigational agents: BI-3406 (NSC825286), BAY-293 (NSC824723), batoprotafib (TNO155; NSC825523), sotorasib (AMG 510; NSC818433), MRTX1257 (NSC819558), elimusertib (BAY 1895344; NSC800525), molibresib (GSK525762; NSC774829), temuterkib (LY3214996; NSC803410), venetoclax (NSC766270), alisertib (NSC759677), olaparib (NSC753686), talazoparib (NSC767125), erdafitinib (NSC781556), ipatasertib (NSC767898), cabozantinib (NSC761068), nintedanib (NSC756659), abemaciclib (NSC768073), docetaxel (NSC628503), trametinib (NSC758246), and sapanisertib (NSC764658) were obtained from the National Cancer Institute (NCI) Developmental Therapeutics Program Chemical Repository. The FDA-approved anticancer drug set is available from the Developmental Therapeutics Program. […] The stock solutions were prepared in dimethyl sulfoxide (DMSO, Sigma-Aldrich, St. Louis, MO, cat. D2650) at 800-fold the tested concentration and stored at -70 degrees C prior to their use. All drugs and investigational agents were tested over a range starting from a high concentration at or near the clinical Cmax and decreasing in half-log increments. If the clinical Cmax for an agent had not been determined, the highest concentration tested was 10 microM.
Cell Culture. All cells were maintained in an incubator at 37 degrees C and 5% CO2 with 95% humidity. The PDC lines were cultured according to standard operating procedures established by the NCI PDMR (https://pdmr.cancer.gov/sops/default.htm). Briefly, all PDCs were thawed and cultured in Matrigel-coated flasks prepared with a working solution of 1X Ham's F-12 nutrient mix, without supplementation (Invitrogen, Waltham, MA, cat. 11765054), 100 U/mL penicillin-streptomycin (Invitrogen, cat. 15140122), and 2.5% Matrigel (Corning Inc., Corning, NY, cat. 354248) for the first three passages. All PDCs were cultured in complete DMEM/F-12 media containing advanced DMEM/F-12 (Invitrogen, cat. 12634028), 4.9% defined fetal bovine serum, heat inactivated (HyClone Laboratories Inc., Logan, UT, cat. SH30070.03HI), 389 ng/mL hydrocortisone (Sigma-Aldrich, cat. H4001), 9.7 ng/mL human EGF recombinant protein (Invitrogen, cat. PHG0313), 23.4 microg/mL adenine (Sigma-Aldrich, cat. A2786), 97.3 U/mL penicillin-streptomycin (Invitrogen, cat. 15140122), 1.9 mM L-glutamine (Invitrogen, cat. 25030081), and 9.7 microM Y-27632 dihydrochloride (Tocris Bioscience, Bristol, United Kingdom, cat. 1254). The PDCs were cultured in complete DMEM/F12 media without 9.7 microM Y-27632 dihydrochloride for at least two passages prior to the screen. The established cell line HOP-62 was cultured in RPMI 1640 medium, HEPES (Invitrogen, cat. 22400105) with 10% defined fetal bovine serum (HyClone Laboratories Inc., cat. SH30070.03) and 2 mM L-glutamine (Invitrogen, cat. 25030081). The pooled donor HUVEC were cultured in endothelial cell growth medium 2 (PromoCell, Heidelberg, Germany, cat. C-22011) and the hMSC were cultured in mesenchymal stem cell growth medium 2 (PromoCell, cat. C-28009). For all experiments, HUVEC and hMSC were used at passages </=5, while the malignant cell lines were used at passages </=15. […]

[1] = second compound 0.1 µM, first compound 0.0316 µM
[2] = second compound 0.316 µM, first compound 0.0316 µM
[3] = second compound 1 µM, first compound 0.0316 µM
[4] = second compound 3.16 µM, first compound 0.0316 µM
[5] = second compound 10 µM, first compound 0.0316 µM
[6] = second compound 0.1 µM, first compound 0.1 µM
[7] = second compound 0.1 µM, first compound 0.316 µM
[8] = second compound 0.1 µM, first compound 1 µM
[9] = second compound 0.1 µM, first compound 3.16 µM
[10] = second compound 0.1 µM, first compound 10 µM
[11] = second compound 0.316 µM, first compound 0.1 µM
[12] = second compound 0.316 µM, first compound 0.316 µM
[13] = second compound 0.316 µM, first compound 1 µM
[14] = second compound 0.316 µM, first compound 3.16 µM
[15] = second compound 0.316 µM, first compound 10 µM
[16] = second compound 1 µM, first compound 0.1 µM
[17] = second compound 1 µM, first compound 0.316 µM
[18] = second compound 1 µM, first compound 1 µM
[19] = second compound 1 µM, first compound 3.16 µM
[20] = second compound 1 µM, first compound 10 µM
[21] = second compound 3.16 µM, first compound 0.1 µM
[22] = second compound 3.16 µM, first compound 0.316 µM
[23] = second compound 3.16 µM, first compound 1 µM
[24] = second compound 3.16 µM, first compound 3.16 µM
[25] = second compound 3.16 µM, first compound 10 µM
[26] = second compound 10 µM, first compound 0.1 µM
[27] = second compound 10 µM, first compound 0.316 µM
[28] = second compound 10 µM, first compound 1 µM
[29] = second compound 10 µM, first compound 3.16 µM
[30] = second compound 10 µM, first compound 10 µM
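Further: spheroids exposed to agents for 7 days.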
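Wherever viability, T/C is given: 100% = DMSO vehicle control viability.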

What does the source list for `CC(=O)Nc1cccc(-n2c(=O)n(C3CC3)c(=O)c3c(Nc4ccc(I)cc4F)n(C)c(=O)c(C)c32)c1` + C=CC(=O)N1CCN(c2nc(=O)n(-c3c(C)ccnc3C(C)C)c3nc(-c4c(O)cccc4F)c(F)cc23)C(C)C1?
pIC50 (second compound 0.1 µM): 8.94; pIC50 (second compound 0.316 µM): 9.01; pIC50 (second compound 1 µM): 9.10; pIC50 (second compound 3.16 µM): 8.92; pIC50 (second compound 10 µM): 9.53; viability, T/C (second compound 0.1 µM, first compound 0.0001 µM): 67.4%; viability, T/C (second compound 0.1 µM, first compound 0.000316 µM): 62.2%; viability, T/C (second compound 0.1 µM, first compound 0.001 µM): 49.2%; viability, T/C (second compound 0.1 µM, first compound 0.00316 µM): 40.1%; viability, T/C (second compound 0.1 µM, first compound 0.01 µM): 36.6%; viability, T/C [1]: 23.4%; viability, T/C (second compound 0.316 µM, first compound 0.0001 µM): 60.1%; viability, T/C (second compound 0.316 µM, first compound 0.000316 µM): 57.1%; viability, T/C (second compound 0.316 µM, first compound 0.001 µM): 49.3%; viability, T/C (second compound 0.316 µM, first compound 0.00316 µM): 41.5%; viability, T/C (second compound 0.316 µM, first compound 0.01 µM): 33.7%; viability, T/C [2]: 20.9%; viability, T/C (second compound 1 µM, first compound 0.0001 µM): 61.4%; viability, T/C (second compound 1 µM, first compound 0.000316 µM): 58.3%; viability, T/C (second compound 1 µM, first compound 0.001 µM): 46.4%; viability, T/C (second compound 1 µM, first compound 0.00316 µM): 40.4%; viability, T/C (second compound 1 µM, first compound 0.01 µM): 32.7%; viability, T/C [3]: 27%; viability, T/C (second compound 3.16 µM, first compound 0.0001 µM): 64.1%; viability, T/C (second compound 3.16 µM, first compound 0.000316 µM): 59.5%; viability, T/C (second compound 3.16 µM, first compound 0.001 µM): 51.4%; viability, T/C (second compound 3.16 µM, first compound 0.00316 µM): 42.1%; viability, T/C (second compound 3.16 µM, first compound 0.01 µM): 36.7%; viability, T/C [4]: 28.2%; viability, T/C (second compound 10 µM, first compound 0.0001 µM): 60.9%; viability, T/C (second compound 10 µM, first compound 0.000316 µM): 54.3%; viability, T/C (second compound 10 µM, first compound 0.001 µM): 32.6%; viability, T/C (second compound 10 µM, first compound 0.00316 µM): 35.8%; viability, T/C (second compound 10 µM, first compound 0.01 µM): 28.1%; viability, T/C [5]: 23.8%

How did the pIC50 (second compound 0.1 µM) turn out when `COC(=O)c1ccc2c(C(=Nc3ccc(N(C)C(=O)CN4CCN(C)CC4)cc3)c3ccccc3)c(O)[nH]c2c1` + C=CC(=O)N1CCN(c2nc(=O)n(-c3c(C)ccnc3C(C)C)c3nc(-c4c(O)cccc4F)c(F)cc23)C(C)C1 was run?
The pIC50 was 5.94.

What about the pIC50 (second compound 0.316 µM) of the same compound?
Its pIC50 is 6.27.

What about the pIC50 (second compound 1 µM) of the same compound?
Its pIC50 is 6.61.

And the pIC50 (second compound 3.16 µM)?
Its pIC50 is 6.71.

What about the pIC50 (second compound 10 µM) of the same compound?
The pIC50 was > 7.50.

And the viability, T/C [1]?
The viability, T/C was 53.3%.

What about the viability, T/C [6] of the same compound?
Its viability, T/C is 55.6%.

And the viability, T/C [7]?
Its viability, T/C is 53.7%.

And the viability, T/C [8]?
Its viability, T/C is 50.7%.

And the viability, T/C [9]?
Its viability, T/C is 42.6%.

What about the viability, T/C [10] of the same compound?
Its viability, T/C is 19%.

And the viability, T/C [2]?
Its viability, T/C is 56%.

What about the viability, T/C [11] of the same compound?
Its viability, T/C is 52.4%.

What about the viability, T/C [12] of the same compound?
The viability, T/C was 52.6%.

And the viability, T/C [13]?
Its viability, T/C is 46.8%.

What about the viability, T/C [14] of the same compound?
The viability, T/C was 28.4%.

And the viability, T/C [15]?
The viability, T/C was 16.6%.

And the viability, T/C [3]?
The viability, T/C was 57.9%.

And the viability, T/C [16]?
Its viability, T/C is 57.6%.

And the viability, T/C [17]?
Its viability, T/C is 48%.

What about the viability, T/C [18] of the same compound?
Its viability, T/C is 28.2%.

And the viability, T/C [19]?
Its viability, T/C is 21.4%.

What about the viability, T/C [20] of the same compound?
The viability, T/C was 16.8%.

What about the viability, T/C [4] of the same compound?
The viability, T/C was 58%.

And the viability, T/C [21]?
The viability, T/C was 56.6%.

What about the viability, T/C [22] of the same compound?
The viability, T/C was 46.4%.

What about the viability, T/C [23] of the same compound?
The viability, T/C was 27.9%.

What about the viability, T/C [24] of the same compound?
The viability, T/C was 22.1%.

What about the viability, T/C [25] of the same compound?
Its viability, T/C is 13.8%.

What about the viability, T/C [5] of the same compound?
Its viability, T/C is 43.1%.

What about the viability, T/C [26] of the same compound?
Its viability, T/C is 32.9%.

And the viability, T/C [27]?
Its viability, T/C is 29.6%.

What about the viability, T/C [28] of the same compound?
Its viability, T/C is 18.8%.

And the viability, T/C [29]?
Its viability, T/C is 17.8%.

What about the viability, T/C [30] of the same compound?
Its viability, T/C is 12.5%.

Which results are given for `O=C(c1cc(Cc2n[nH]c(=O)c3ccccc23)ccc1F)N1CCN(C(=O)C2CC2)CC1` + C=CC(=O)N1CCN(c2nc(=O)n(-c3c(C)ccnc3C(C)C)c3nc(-c4c(O)cccc4F)c(F)cc23)C(C)C1?
pIC50 (second compound 0.1 µM): < 5.00; pIC50 (second compound 0.316 µM): 5.13; pIC50 (second compound 1 µM): 5.11; pIC50 (second compound 3.16 µM): < 5.00; pIC50 (second compound 10 µM): 5.76; viability, T/C [1]: 64.6%; viability, T/C [6]: 61.7%; viability, T/C [7]: 62.9%; viability, T/C [8]: 64.5%; viability, T/C [9]: 64.7%; viability, T/C [10]: 50.3%; viability, T/C [2]: 67.1%; viability, T/C [11]: 59.7%; viability, T/C [12]: 61.3%; viability, T/C [13]: 55.9%; viability, T/C [14]: 55.3%; viability, T/C [15]: 46.7%; viability, T/C [3]: 60.8%; viability, T/C [16]: 59.9%; viability, T/C [17]: 59.2%; viability, T/C [18]: 61.7%; viability, T/C [19]: 60.3%; viability, T/C [20]: 39.2%; viability, T/C [4]: 64.2%; viability, T/C [21]: 66.2%; viability, T/C [22]: 61.1%; viability, T/C [23]: 61%; viability, T/C [24]: 58.7%; viability, T/C [25]: 46.2%; viability, T/C [5]: 48.3%; viability, T/C [26]: 50.1%; viability, T/C [27]: 60.3%; viability, T/C [28]: 55.6%; viability, T/C [29]: 45%; viability, T/C [30]: 32%
